Experimental data taken from PMC8445441, “Elucidating the mechanism by which synthetic helper peptides sensitize Pseudomonas aeruginosa to multiple antibiotics” (PLoS Pathogens, 2021).
Positions of bridges follow the written chain, without caps; N, C: chain ends. Non-standard residues stand in square brackets, D forms with d. Residues, ends and D or L forms follow the SMILES beside them. *: point of attachment. X1 = CC[C@H](C)CCCCC(=O)*; Dab = NCC[C@H](N)C(=O)O

Key:
P. aeruginosa AUMC-Pa-3 = assay: microbe, parasite or virus in culture; details: strain AUMC-Pa-3
Summary of the method: (§1)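 Growth inhibition was scored by eye after an 18 h, 37 °C incubation of drug-bacteria mixtures in Mueller-Hinton broth. Inoculum suspension held approximately 1 × 10^6 CFU/mL before 1:1 mixing.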

P. aeruginosa AUMC-Pa-4 = assay: microbe, parasite or virus in culture; details: strain AUMC-Pa-4
Summary of the method: as §1

P. aeruginosa AUMC-Pa-5 = assay: microbe, parasite or virus in culture; details: strain AUMC-Pa-5
Summary of the method: as §1

P. aeruginosa AUMC-Pa-6 = assay: microbe, parasite or virus in culture; details: strain AUMC-Pa-6
Summary of the method: as §1

P. aeruginosa PAO1 = assay: microbe, parasite or virus in culture; details: for MICac: the MIC for the antibiotic in the combination: S3 Table, PAO1
Summary of the method: as §1

P. aeruginosa ATCC27853 = assay: microbe, parasite or virus in culture; design: MICa: MIC of the antibiotic / MICac: MIC of the antibiotic in the combination: unit not given beside the values; details: strain ATCC27853
Procedure: (§2) The MIC tests were performed in triplicate using broth microdilution in accordance with Clinical and Laboratory Standards Institute (CLSI) recommendations (http://iacld.ir/DL/public/CLSI-2018-M100-S28.pdf). Briefly, drugs were two-fold diluted in MHB and mixed with an equal volume of bacterial suspensions containing approximately 1 × 10^6 CFU/mL in 96-well microliter plate. After 18 h incubation at 37 °C, the MIC values were defined as the lowest concentrations of antibiotics with no visible growth of bacteria. […] Otherwise, 1/4 MIC of the peptide was used in the combination. […] If needed, membrane compounds PG, PE, PC, CL or LPS, or membrane stabilizers MgCl2 or CaCl2, or efflux pumps inhibitor PAβN were added to the broth medium to clarify the effect of other substances on the synergy between peptide and antibiotics. All the tests were performed in triplicate.
(§3) The fractional inhibitory concentration (FIC) indices were calculated using the previously described formula FICI = FICa + FICb = MICac/MICa + MICbc/MICb. The FICI was interpreted according to EUCAST [65] as follows: synergistic, FICI≤0.5; additive, 0.5<FICI≤1; indifferent, 1<FICI<2; antagonistic, FICI ≥2. For the FICI calculations, twice the highest concentration tested was used in the cases where the MIC was not reached.

P. aeruginosa NR-31040 = assay: microbe, parasite or virus in culture; design: MICa: MIC of the antibiotic / MICac: MIC of the antibiotic in the combination: unit not given beside the values; details: strain NR-31040
Procedure: as §2, §3

P. aeruginosa NR-31041 = assay: microbe, parasite or virus in culture; design: MICa: MIC of the antibiotic / MICac: MIC of the antibiotic in the combination: unit not given beside the values; details: strain NR-31041
Procedure: as §2, §3

P. aeruginosa PA14 = assay: microbe, parasite or virus in culture; design: MICa: MIC of the antibiotic / MICac: MIC of the antibiotic in the combination: unit not given beside the values; details: strain PA14
Procedure: as §2, §3

P. aeruginosa PAK = assay: microbe, parasite or virus in culture; design: MICa: MIC of the antibiotic / MICac: MIC of the antibiotic in the combination: unit not given beside the values; details: strain PAK
Procedure: as §2, §3

P. aeruginosa HM-214 = system: P. aeruginosa HM-214; design: MICa: MIC of the antibiotic / MICac: MIC of the antibiotic in the combination: unit not given beside the values; details: strain HM-214
Procedure: as §2, §3

P. aeruginosa AUMC-Pa-1 = details: strain AUMC-Pa-1
Procedure: as §2, §3

P. aeruginosa AUMC-Pa-2 = details: strain AUMC-Pa-2
Procedure: as §2, §3

[1] = system: clinical P. aeruginosa isolates; assay: microbe, parasite or virus in culture; details: antibiotic alone
Summary of the method: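 Broth microdilution per CLSI in MHB, two-fold drug dilutions mixed with an equal volume of bacteria at about 1 × 10^6 CFU/mL. After 18 h at 37 °C, MIC taken as the lowest concentration with no visible growth; run in triplicate.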

[2] = antibiotic + D-11 (MICb/MICbc 128/4)
[3] = antibiotic alone, unit not given
[4] = with D-11 at MICbc 4, unit not given
[5] = antibiotic + D-11 (MICb/MICbc 64/4)

With `CC[C@H](C)CCCCC(=O)N[C@@H](CCN)C(=O)N[C@H](C(=O)N[C@@H](CCN)C(=O)N[C@H]1CCNC(=O)[C@H]([C@@H](C)O)NC(=O)[C@H](CCN)NC(=O)[C@H](CCN)NC(=O)[C@H](CC(C)C)NC(=O)[C@@H](CC(C)C)NC(=O)[C@H](CCN)NC1=O)[C@@H](C)O` [Colistin] (X1-[Dab]T[Dab][Dab][Dab][dL]L[Dab][Dab]T; lactam 4-C (inferred); N-terminus assumed) the FICI (P. aeruginosa AUMC-Pa-3; [2]) was 0.039, the “MICa: MIC of the antibiotic” value (P. aeruginosa AUMC-Pa-3; [3]) was 0.25 and the “MICac: MIC of the antibiotic in the combination” value (from here on “MICac: MIC of the antibiotic”) (P. aeruginosa AUMC-Pa-3; [4]) was 0.002. For the same molecule, the FICI (P. aeruginosa AUMC-Pa-4; [2]) was 0.531, the “MICa: MIC of the antibiotic” value (P. aeruginosa AUMC-Pa-4; [3]) was 8 and the “MICac: MIC of the antibiotic” value (P. aeruginosa AUMC-Pa-4; [4]) was 4. For the same molecule, the FICI (P. aeruginosa AUMC-Pa-5; [5]) was 1.063, the “MICa: MIC of the antibiotic” value (P. aeruginosa AUMC-Pa-5; [3]) was 4/4 and the “MICac: MIC of the antibiotic” value (P. aeruginosa AUMC-Pa-5; [4]) was 4/4. For the same molecule, the FICI (P. aeruginosa AUMC-Pa-6; [5]) was 0.563, the “MICa: MIC of the antibiotic” value (P. aeruginosa AUMC-Pa-6; [3]) was 4 and the “MICac: MIC of the antibiotic” value (P. aeruginosa AUMC-Pa-6; [4]) was 2. For the same molecule, the “MICa: the MIC of antibiotics” value (P. aeruginosa PAO1; PAO1, 18 h) was 0.25 µM, the “MICac: the MIC for the antibiotic in the combination” value (P. aeruginosa PAO1; with 2 μM D-11) was 0.004 µM and the “MICac: the MIC for the antibiotic in the combination” value (P. aeruginosa PAO1; with 4 μM D-11) was 0.001 µM. For the same molecule, the FICI (P. aeruginosa ATCC27853; antibiotic + D-11 (MICb/MICbc 32/4)) was 0.375, the “MICa: MIC of the antibiotic” value (P. aeruginosa ATCC27853; [3]) was 0.25 and the “MICac: MIC of the antibiotic” value (P. aeruginosa ATCC27853; [4]) was 0.063. For the same molecule, the FICI (P. aeruginosa NR-31040; [2]) was 0.281, the “MICa: MIC of the antibiotic” value (P. aeruginosa NR-31040; [3]) was 1 and the “MICac: MIC of the antibiotic” value (P. aeruginosa NR-31040; [4]) was 0.25. For the same molecule, the FICI (P. aeruginosa NR-31041; [5]) was 0.127, the “MICa: MIC of the antibiotic” value (P. aeruginosa NR-31041; [3]) was 0.125 and the “MICac: MIC of the antibiotic” value (P. aeruginosa NR-31041; [4]) was 0.008. For the same molecule, the FICI (P. aeruginosa PA14; [2]) was 0.094, the “MICa: MIC of the antibiotic” value (P. aeruginosa PA14; [3]) was 0.25 and the “MICac: MIC of the antibiotic” value (P. aeruginosa PA14; [4]) was 0.016. The FICI (P. aeruginosa PAK; [5]) was 0.079, the “MICa: MIC of the antibiotic” value (P. aeruginosa PAK; [3]) was 0.25 and the “MICac: MIC of the antibiotic” value (P. aeruginosa PAK; [4]) was 0.008. For the same molecule, the FICI (P. aeruginosa HM-214; [2]) was 0.063, the “MICa: MIC of the antibiotic” value (P. aeruginosa HM-214; [3]) was 1 and the “MICac: MIC of the antibiotic” value (P. aeruginosa HM-214; [4]) was 0.031. For the same molecule, the FICI (P. aeruginosa AUMC-Pa-1; [2]) was 0.281, the “MICa: MIC of the antibiotic” value (P. aeruginosa AUMC-Pa-1; [3]) was 0.5 and the “MICac: MIC of the antibiotic” value (P. aeruginosa AUMC-Pa-1; [4]) was 0.125. The FICI (P. aeruginosa AUMC-Pa-2; [5]) was 1.063, the “MICa: MIC of the antibiotic” value (P. aeruginosa AUMC-Pa-2; [3]) was 0.5/0.5 and the “MICac: MIC of the antibiotic” value (P. aeruginosa AUMC-Pa-2; [4]) was 0.5/0.5. For the same molecule, the “Antibiotic sensibility (MIC) of clinical P. aeruginosa isolate AUMC-Pa-1” value ([1]; strain AUMC-Pa-1) was 0.5 µM, the “Antibiotic sensibility (MIC) of clinical P. aeruginosa isolate AUMC-Pa-2” value ([1]; strain AUMC-Pa-2) was 0.5 µM and the “Antibiotic sensibility (MIC) of clinical P. aeruginosa isolate AUMC-Pa-3” value ([1]; strain AUMC-Pa-3) was 0.25 µM. For the same molecule, the “Antibiotic sensibility (MIC) of clinical P. aeruginosa isolate AUMC-Pa-4” value ([1]; strain AUMC-Pa-4) was 8 µM, the “Antibiotic sensibility (MIC) of clinical P. aeruginosa isolate AUMC-Pa-5” value ([1]; strain AUMC-Pa-5) was 4 µM and the “Antibiotic sensibility (MIC) of clinical P. aeruginosa isolate AUMC-Pa-6” value ([1]; strain AUMC-Pa-6) was 4 µM. For the same molecule, the “Antibiotic sensibility (MIC) of clinical P. aeruginosa isolate HM-214” value ([1]; strain HM-214) was 1 µM, the “Antibiotic sensibility (MIC) of clinical P. aeruginosa isolate NR-31040” value ([1]; strain NR-31040) was 1 µM and the “Antibiotic sensibility (MIC) of clinical P. aeruginosa isolate NR-31041” value ([1]; strain NR-31041) was 0.125 µM.
